Data: patent US9050341B2, “Methods of treating drug resistant and other tumors by administering 6,7-dialkoxy quinazoline derivatives” (NATCO PHARMA LIMITED, priority 2009, dated 2015)

Experiments:
Test in all cases: KinomeScan kinase profiling
Format in all cases: binding
INSRR = molecular target: T1, INSRR (Homo sapiens, UniProt P14616)
T1 construct: host or cells: T7 phage in E. coli host derived from BL21
Source text: (§1) The kinases were ABL1(F317L), ABL1(H396P), ABL1(Q252H), ABL1(Y253F), ADCK3, ADCK4, ALK, ARK5, AXL, BLK, BRSK2, CDK7, CIT, CLK4, CSNK1D, CSNK1E, DAPK1, DAPK3, DCAMKL3, DMPK, EGFR, EGFR(E746-A750DEL), EGFR(G719C), EGFR(G719S), EGFR(L747-E749DEL, A750P), EGFR(L747-S752 DEL, P753S), EGFR(L747-T751DEL, Sin), EGFR(L858R), EGFR(L861Q), EGFR(S752-I759DEL), EPHA5, EPHA6, ERBB2, ERBB4, ERK3, ERK4, FGR, FLT3(D835H), FLT3(D835Y), FLT3(ITD), FLT3(N841 I), FRK, GAK, GCN2(KIN.DOM.2, S808G), HCK, IRAK3, JAK1(KIN.DOM.1), KIT, KIT(D816V), KIT(V559D), KIT(V559D,T670I), LCK, LOK, LTK, LYN, MAP3K3, MAP4K4, MAP4K5, MET, MINK, MKNK1, MKNK2, MST4, MYLK2, PDGFRB, PIM3, PKN2, PRKD1, PRKD2, PRKD3, PRKG1, RIPK2, RPS6KA4(KIN.DOM.2), SIK2, SLK, SNARK, SRC, STK36, TNIK, TNNI3K, TYK2(KIN.DOM.2).
(§2) Kinase assays: Assays were performed as described in Fabian et al. (2005) Nature Biotechnology, vol. 23, p. 329. Kinase-tagged T7 phage strains were grown in parallel in 24 or 96-well blocks in an E. coli host derived from the BL21 strain. E. coli were grown to log-phase and infected with T7 phage from a frozen stock (multiplicity of infection ˜0.1) and incubated with shaking at 32° C. until lysis (˜90 minutes). The lysates were centrifuged and filtered to remove cell debris. […] The liganded beads were blocked with excess biotin and washed with blocking buffer (SeaBlock (Pierce), 1% BSA, 0.05% Tween 20, 1 mM DTT) to remove unbound ligand and to reduce non-specific phage binding.
(§3) Test compounds were prepared as 40× stocks in DMSO and diluted into the aqueous environment. 2.5% DMSO was added to control assays lacking a test compound. All reactions were performed in polystyrene 96-well plates that had been pretreated with blocking buffer in a final volume of 0.04 ml. […] The phage titer in the eluates was measured by quantitative PCR.

BRAF = molecular target: T2, BRAF (Homo sapiens, UniProt P15056)
T2 construct: purchased Ambit Biosciences Corp (KinomeScan); host or cells: E. coli host derived from the BL21 strain, T7 phage
Source text: as §1, §2, §3

DLK = molecular target: T3, DLK (Homo sapiens, UniProt Q12852)
T3 construct: purchased Ambit Biosciences Corp (KinomeScan); host or cells: T7 phage in E. coli host derived from BL21
T3 sequence (Q12852 whole entry): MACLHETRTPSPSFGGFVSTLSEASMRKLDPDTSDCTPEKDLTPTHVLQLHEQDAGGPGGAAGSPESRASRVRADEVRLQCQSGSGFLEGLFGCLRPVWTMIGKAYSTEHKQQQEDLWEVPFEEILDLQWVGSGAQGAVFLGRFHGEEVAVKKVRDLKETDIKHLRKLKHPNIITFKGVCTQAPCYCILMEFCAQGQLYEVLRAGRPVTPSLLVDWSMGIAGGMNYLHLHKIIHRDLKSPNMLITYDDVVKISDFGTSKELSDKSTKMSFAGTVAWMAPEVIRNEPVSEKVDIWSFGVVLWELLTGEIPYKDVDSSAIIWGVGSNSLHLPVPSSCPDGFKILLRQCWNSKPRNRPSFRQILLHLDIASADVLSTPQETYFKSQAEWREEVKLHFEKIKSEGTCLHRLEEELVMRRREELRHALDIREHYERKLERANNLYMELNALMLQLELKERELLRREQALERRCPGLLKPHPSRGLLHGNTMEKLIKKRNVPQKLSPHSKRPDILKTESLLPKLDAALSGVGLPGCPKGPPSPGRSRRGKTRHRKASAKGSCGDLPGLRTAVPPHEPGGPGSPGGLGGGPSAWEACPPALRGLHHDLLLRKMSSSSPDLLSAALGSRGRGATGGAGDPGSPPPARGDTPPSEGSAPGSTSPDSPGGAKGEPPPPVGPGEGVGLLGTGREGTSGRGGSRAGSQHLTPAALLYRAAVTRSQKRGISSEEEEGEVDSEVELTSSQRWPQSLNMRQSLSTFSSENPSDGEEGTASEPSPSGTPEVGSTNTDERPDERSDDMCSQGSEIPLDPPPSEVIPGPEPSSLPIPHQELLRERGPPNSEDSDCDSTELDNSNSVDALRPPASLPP
Source text: as §1, §2, §3

ITK = molecular target: T4, ITK (Homo sapiens, UniProt Q08881)
T4 construct: host or cells: T7 phage in E. coli host derived from BL21
T4 sequence (Q08881 whole entry): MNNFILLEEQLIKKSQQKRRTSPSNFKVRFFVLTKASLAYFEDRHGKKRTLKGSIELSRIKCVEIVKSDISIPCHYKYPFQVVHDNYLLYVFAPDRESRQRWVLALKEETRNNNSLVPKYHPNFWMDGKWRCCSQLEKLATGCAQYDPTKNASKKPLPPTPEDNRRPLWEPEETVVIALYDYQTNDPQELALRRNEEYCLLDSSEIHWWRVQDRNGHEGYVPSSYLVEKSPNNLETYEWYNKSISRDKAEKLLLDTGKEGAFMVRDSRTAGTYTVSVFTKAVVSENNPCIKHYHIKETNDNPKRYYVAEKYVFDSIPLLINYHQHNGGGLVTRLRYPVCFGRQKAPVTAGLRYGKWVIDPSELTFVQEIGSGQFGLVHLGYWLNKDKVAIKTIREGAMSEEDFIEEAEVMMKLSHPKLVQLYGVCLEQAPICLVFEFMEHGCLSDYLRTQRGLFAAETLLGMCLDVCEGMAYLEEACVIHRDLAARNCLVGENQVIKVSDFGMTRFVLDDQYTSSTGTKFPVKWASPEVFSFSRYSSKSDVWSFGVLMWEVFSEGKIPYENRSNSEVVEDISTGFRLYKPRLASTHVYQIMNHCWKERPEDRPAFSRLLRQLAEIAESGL
Source text: as §1, §2, §3

MARK2 = molecular target: T5, MARK2 (Homo sapiens, UniProt Q7KZI7)
T5 construct: host or cells: E. coli derived from BL21, infected with T7 phage
Source text: as §1, §2, §3

BMX = molecular target: T6, BMX (Homo sapiens, UniProt P51813)
T6 construct: purchased Ambit Biosciences Corp (KinomeScan); host or cells: E. coli host derived from the BL21 strain, T7 phage
Source text: as §1, §2, §3

[1] = molecular target: T7, RPS6KA1 (Kin.Dom.-1-N-terminal) (Homo sapiens, UniProt Q15418)
T7 construct: RPS6KA1 (Kin.Dom.-1-N-terminal); host or cells: E. coli host derived from BL21, T7 phage lysate
T7 sequence (Q15418 62-321 limits assumed): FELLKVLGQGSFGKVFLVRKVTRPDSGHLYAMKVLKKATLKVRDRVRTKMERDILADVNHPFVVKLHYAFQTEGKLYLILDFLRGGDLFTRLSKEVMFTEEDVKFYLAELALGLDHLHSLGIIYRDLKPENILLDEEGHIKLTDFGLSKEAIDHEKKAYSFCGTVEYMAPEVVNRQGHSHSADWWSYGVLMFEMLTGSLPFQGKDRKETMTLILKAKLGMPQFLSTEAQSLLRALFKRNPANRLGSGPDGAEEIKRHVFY
Source text: as §1, §2, §3

MLCK = molecular target: T8, MLCK (Homo sapiens, UniProt Q32MK0)
T8 construct: host or cells: T7 phage in E. coli host derived from BL21
Source text: as §1, §2, §3

PAK2 = molecular target: T9, PAK2 (Homo sapiens, UniProt Q13177)
T9 construct: host or cells: E. coli host derived from the BL21 strain, infected with T7 phage
T9 sequence (Q13177 whole entry): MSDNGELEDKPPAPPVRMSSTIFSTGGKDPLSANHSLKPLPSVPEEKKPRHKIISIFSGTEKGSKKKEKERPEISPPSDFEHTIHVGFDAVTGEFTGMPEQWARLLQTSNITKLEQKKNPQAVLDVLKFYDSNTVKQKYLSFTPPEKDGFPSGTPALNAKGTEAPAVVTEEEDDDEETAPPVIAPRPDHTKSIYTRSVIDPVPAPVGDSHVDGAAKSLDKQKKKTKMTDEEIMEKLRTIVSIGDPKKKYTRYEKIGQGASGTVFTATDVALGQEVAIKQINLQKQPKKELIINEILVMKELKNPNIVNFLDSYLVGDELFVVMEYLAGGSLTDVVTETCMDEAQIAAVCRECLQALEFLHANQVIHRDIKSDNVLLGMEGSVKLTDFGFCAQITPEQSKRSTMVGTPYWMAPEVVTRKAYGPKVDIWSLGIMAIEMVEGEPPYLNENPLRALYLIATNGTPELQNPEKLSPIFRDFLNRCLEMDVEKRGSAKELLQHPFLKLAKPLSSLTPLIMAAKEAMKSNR
Source text: as §1, §2, §3

PFTK1 = molecular target: T10, PFTK1 (Homo sapiens, UniProt O94921)
T10 construct: host or cells: E. coli host derived from the BL21 strain, infected with T7 phage
Source text: as §1, §2, §3

TNIK = molecular target: T11, TNIK (Homo sapiens, UniProt Q9UKE5)
T11 construct: purchased Ambit Biosciences Corp (KinomeScan); host or cells: E. coli host derived from the BL21 strain (T7 phage lysate)
Source text: as §1, §2, §3

FRK = molecular target: T12, FRK (Homo sapiens, UniProt P42685)
T12 construct: host or cells: E. coli host derived from BL21, infected with T7 phage
T12 sequence (P42685 whole entry): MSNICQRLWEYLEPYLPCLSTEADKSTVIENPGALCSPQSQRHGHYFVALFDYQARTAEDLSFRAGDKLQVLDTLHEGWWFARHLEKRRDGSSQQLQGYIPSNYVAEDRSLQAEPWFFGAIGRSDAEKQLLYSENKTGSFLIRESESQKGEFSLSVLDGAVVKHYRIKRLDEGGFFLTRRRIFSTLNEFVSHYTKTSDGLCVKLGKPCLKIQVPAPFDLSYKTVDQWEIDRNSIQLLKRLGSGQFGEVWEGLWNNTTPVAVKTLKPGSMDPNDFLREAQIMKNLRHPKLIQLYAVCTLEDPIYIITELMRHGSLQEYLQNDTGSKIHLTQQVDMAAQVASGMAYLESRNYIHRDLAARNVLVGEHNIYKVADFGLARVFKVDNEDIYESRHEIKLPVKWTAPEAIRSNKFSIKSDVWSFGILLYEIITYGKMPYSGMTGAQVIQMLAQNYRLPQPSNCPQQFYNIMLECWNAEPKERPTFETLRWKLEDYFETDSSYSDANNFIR
Source text: as §1, §2, §3

PCTK2 = molecular target: T13, PCTK2 (Homo sapiens, UniProt Q00537)
T13 construct: host or cells: E. coli host derived from the BL21 strain, infected with T7 phage
T13 sequence (Q00537 whole entry): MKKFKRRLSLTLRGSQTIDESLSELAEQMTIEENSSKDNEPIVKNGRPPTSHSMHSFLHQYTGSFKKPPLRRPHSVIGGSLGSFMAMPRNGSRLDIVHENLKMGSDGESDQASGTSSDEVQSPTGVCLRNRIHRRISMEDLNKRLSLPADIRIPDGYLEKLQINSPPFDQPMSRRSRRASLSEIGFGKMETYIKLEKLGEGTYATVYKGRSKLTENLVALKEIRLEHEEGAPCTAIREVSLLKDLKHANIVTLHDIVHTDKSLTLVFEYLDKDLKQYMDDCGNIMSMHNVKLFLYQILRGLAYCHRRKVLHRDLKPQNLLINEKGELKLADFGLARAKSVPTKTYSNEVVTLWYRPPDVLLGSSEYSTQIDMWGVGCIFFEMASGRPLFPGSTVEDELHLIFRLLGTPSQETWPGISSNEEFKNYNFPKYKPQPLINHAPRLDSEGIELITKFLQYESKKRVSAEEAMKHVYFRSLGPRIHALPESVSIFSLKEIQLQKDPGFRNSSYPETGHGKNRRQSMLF
Source text: as §1, §2, §3

p38-alpha = molecular target: T14, p38-alpha (Homo sapiens, UniProt Q16539)
T14 construct: host or cells: E. coli host derived from the BL21 strain, infected with T7 phage
Source text: as §1, §2, §3

PRKD3 = molecular target: T15, PRKD3 (Homo sapiens, UniProt O94806)
T15 construct: purchased Ambit Biosciences Corp (KinomeScan); host or cells: E. coli host derived from BL21, infected with T7 phage
Source text: as §1, §2, §3

ERK5 = molecular target: T16, ERK5 (Homo sapiens, UniProt Q13164)
T16 construct: host or cells: E. coli host derived from BL21, T7 phage lysate
T16 sequence (Q13164 whole entry): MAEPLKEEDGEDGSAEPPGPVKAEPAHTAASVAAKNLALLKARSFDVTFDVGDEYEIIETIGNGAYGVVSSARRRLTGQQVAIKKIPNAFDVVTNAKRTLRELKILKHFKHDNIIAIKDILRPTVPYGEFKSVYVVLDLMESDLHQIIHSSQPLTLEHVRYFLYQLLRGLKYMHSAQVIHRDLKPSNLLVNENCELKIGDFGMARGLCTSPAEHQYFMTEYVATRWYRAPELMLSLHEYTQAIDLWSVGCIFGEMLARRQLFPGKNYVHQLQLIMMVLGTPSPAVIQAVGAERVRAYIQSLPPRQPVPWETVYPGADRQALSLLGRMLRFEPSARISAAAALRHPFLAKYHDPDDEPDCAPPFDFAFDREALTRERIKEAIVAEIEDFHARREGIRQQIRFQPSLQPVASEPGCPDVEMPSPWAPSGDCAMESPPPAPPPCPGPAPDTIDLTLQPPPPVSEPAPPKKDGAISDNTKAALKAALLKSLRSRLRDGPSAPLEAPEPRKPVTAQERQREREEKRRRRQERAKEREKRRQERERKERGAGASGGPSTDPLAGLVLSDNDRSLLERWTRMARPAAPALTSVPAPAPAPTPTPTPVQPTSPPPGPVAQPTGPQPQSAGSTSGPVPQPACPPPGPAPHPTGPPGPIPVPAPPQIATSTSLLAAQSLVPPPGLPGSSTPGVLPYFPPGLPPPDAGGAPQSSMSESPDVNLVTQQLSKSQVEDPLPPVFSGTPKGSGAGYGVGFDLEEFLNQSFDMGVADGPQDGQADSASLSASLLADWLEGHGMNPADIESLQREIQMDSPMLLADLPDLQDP
Source text: as §1, §2, §3

EPHA3 = molecular target: T17, EPHA3 (Homo sapiens, UniProt P29320)
T17 construct: host or cells: E. coli host derived from BL21, T7 phage lysate
Source text: as §1, §2, §3

CLK2 = molecular target: T18, CLK2 (Homo sapiens, UniProt P49760)
T18 construct: host or cells: T7 phage in E. coli (BL21-derived)
T18 sequence (P49760 whole entry): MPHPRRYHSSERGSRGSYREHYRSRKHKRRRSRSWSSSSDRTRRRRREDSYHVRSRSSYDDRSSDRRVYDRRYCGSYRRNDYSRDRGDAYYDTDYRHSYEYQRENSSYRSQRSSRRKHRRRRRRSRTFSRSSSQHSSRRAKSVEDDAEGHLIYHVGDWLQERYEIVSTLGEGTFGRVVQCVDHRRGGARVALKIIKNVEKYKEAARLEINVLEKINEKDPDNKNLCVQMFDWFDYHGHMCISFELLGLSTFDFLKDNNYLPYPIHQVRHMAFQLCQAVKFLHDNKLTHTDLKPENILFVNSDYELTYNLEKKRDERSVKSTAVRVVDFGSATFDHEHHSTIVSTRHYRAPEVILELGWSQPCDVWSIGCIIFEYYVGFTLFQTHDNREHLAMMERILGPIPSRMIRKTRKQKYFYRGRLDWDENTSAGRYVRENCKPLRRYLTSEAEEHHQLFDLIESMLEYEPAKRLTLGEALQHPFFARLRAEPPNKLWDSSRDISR
Source text: as §1, §2, §3

CDK7 = molecular target: T19, CDK7 (Homo sapiens, UniProt P50613)
T19 construct: host or cells: T7 phage in E. coli (BL21-derived)
T19 sequence (P50613 whole entry): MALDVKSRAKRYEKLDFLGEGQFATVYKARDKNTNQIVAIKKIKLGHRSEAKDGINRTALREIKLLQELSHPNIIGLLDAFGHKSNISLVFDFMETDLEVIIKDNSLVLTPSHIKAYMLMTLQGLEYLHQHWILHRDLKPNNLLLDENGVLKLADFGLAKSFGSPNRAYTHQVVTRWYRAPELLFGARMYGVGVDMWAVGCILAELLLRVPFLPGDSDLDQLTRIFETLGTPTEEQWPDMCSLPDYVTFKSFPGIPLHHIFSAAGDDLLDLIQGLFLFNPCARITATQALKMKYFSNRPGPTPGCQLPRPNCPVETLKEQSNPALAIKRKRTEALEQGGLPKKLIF
Source text: as §1, §2, §3

NEK6 = molecular target: T20, NEK6 (Homo sapiens, UniProt Q9HC98)
T20 construct: host or cells: T7 phage in E. coli host derived from BL21
Source text: as §1, §2, §3

HCK = molecular target: T21, HCK (Homo sapiens, UniProt P08631)
T21 construct: host or cells: E. coli host derived from BL21, infected with T7 phage
Source text: as §1, §2, §3

ABL1 (F317L) = molecular target: T22, ABL1 (F317L) (Homo sapiens, UniProt P00519, F317L)
T22 construct: host or cells: E. coli host derived from BL21 (T7 phage lysate)
Source text: as §1, §2, §3

## C#Cc1cccc(Nc2ncnc3cc(OC)c(OCCCN4CCOCC4)cc23)c1 [NRC-2694, N-(3-ethylnylphenyl)-7-methoxy-6-[3-(4-morpholinyl)propoxy]-4-quinazolinamine]
INSRR
  % Ctrl @ 10000 nM: 79 % Ctrl
BRAF
  % Ctrl @ 10000 nM: 81 % Ctrl
DLK
  % Ctrl @ 10000 nM: 92 % Ctrl
ITK
  % Ctrl @ 10000 nM: 82 % Ctrl
MARK2
  % Ctrl @ 10000 nM: 70 % Ctrl
BMX
  % Ctrl @ 10000 nM: 73 % Ctrl
[1]
  % Ctrl @ 10000 nM: 100 % Ctrl
MLCK
  % Ctrl @ 10000 nM: 77 % Ctrl
PAK2
  % Ctrl @ 10000 nM: 67 % Ctrl
PFTK1
  % Ctrl @ 10000 nM: 71 % Ctrl
TNIK
  % Ctrl @ 10000 nM: 17 % Ctrl
FRK
  % Ctrl @ 10000 nM: 10 % Ctrl
PCTK2
  % Ctrl @ 10000 nM: 72 % Ctrl
p38-alpha
  % Ctrl @ 10000 nM: 89 % Ctrl
PRKD3
  % Ctrl @ 10000 nM: 7.2 % Ctrl
ERK5
  % Ctrl @ 10000 nM: 90 % Ctrl
EPHA3
  % Ctrl @ 10000 nM: 56 % Ctrl
CLK2
  % Ctrl @ 10000 nM: 64 % Ctrl
CDK7
  % Ctrl @ 10000 nM: 0.55 % Ctrl
NEK6
  % Ctrl @ 10000 nM: 94 % Ctrl
HCK
  % Ctrl @ 10000 nM: 17 % Ctrl
ABL1 (F317L)
  % Ctrl @ 10000 nM: 33 % Ctrl
